Values belong to the compound of their own block, whether it stands above or below them.
Tests used:
[1] = biological target: Ephrin type-B receptor 2 (Homo sapiens) (UniProt P29323); experiment: Inhibition of EPHB2 (unknown origin) at 0.19 uM relative to control
[2] = biological target: Protein kinase C alpha type (Homo sapiens) (UniProt P17252); experiment: Inhibition of PKC-alpha (unknown origin) at 0.19 uM relative to control
[3] = biological target: Homeodomain-interacting protein kinase 4 (Homo sapiens) (UniProt Q8NE63); experiment: Inhibition of HIPK4 (unknown origin) at 0.19 uM relative to control
[4] = biological target: Aurora kinase B (Homo sapiens) (UniProt Q96GD4); experiment: Inhibition of AurB (unknown origin) at 0.19 uM relative to control
[5] = biological target: Tyrosine-protein kinase Lyn (Homo sapiens) (UniProt P07948); experiment: Inhibition of LYN (unknown origin) at 0.19 uM relative to control
[6] = biological target: Dual specificity tyrosine-phosphorylation-regulated kinase 4 (Homo sapiens) (UniProt Q9NR20); experiment: Inhibition of DYRK4 (unknown origin) at 0.19 uM relative to control
[7] = biological target: Macrophage-stimulating protein receptor (Homo sapiens) (UniProt Q04912); experiment: Inhibition of MST1R (unknown origin) at 0.19 uM relative to control
[8] = test system: Fibroblast growth factor receptor 1 (Homo sapiens), P11362 [V561M]; experiment: Inhibition of FGFR1 V561M mutant (unknown origin) at 0.19 uM relative to control
[9] = biological target: SRSF protein kinase 3 (Homo sapiens) (UniProt Q9UPE1); experiment: Inhibition of MSSK1 (unknown origin) at 0.19 uM relative to control
[10] = biological target: Serine/threonine-protein kinase Nek1 (Homo sapiens) (UniProt Q96PY6); experiment: Inhibition of NEK1 (unknown origin) at 0.19 uM relative to control
[11] = biological target: Tyrosine-protein kinase Blk (Homo sapiens) (UniProt P51451); experiment: Inhibition of BLK (unknown origin) at 0.19 uM relative to control
[12] = test system: Tyrosine-protein kinase ABL1 (Homo sapiens), P00519 [G250E]; experiment: Inhibition of ABL1 G250E mutant (unknown origin) at 0.19 uM relative to control
[13] = biological target: Ribosomal protein S6 kinase alpha-3 (Homo sapiens) (UniProt P51812); experiment: Inhibition of RSK2 (unknown origin) at 0.19 uM relative to control
[14] = biological target: Discoidin domain-containing receptor 2 (Homo sapiens) (UniProt Q16832); experiment: Inhibition of DDR2 (unknown origin) at 0.19 uM relative to control
[15] = biological target: Vascular endothelial growth factor receptor 1 (Homo sapiens) (UniProt P17948); experiment: Inhibition of FLT1 (unknown origin) at 0.19 uM relative to control
[16] = Inhibition of GCK (unknown origin) at 0.164 uM relative to control
[17] = biological target: Leukocyte tyrosine kinase receptor (Homo sapiens) (UniProt P29376); experiment: Inhibition of LTK (unknown origin) at 0.164 uM relative to control
[18] = biological target: Ephrin type-B receptor 2 (Homo sapiens) (UniProt P29323); experiment: Inhibition of EPHB2 (unknown origin) at 0.164 uM relative to control
[19] = biological target: Serine/threonine-protein kinase Nek2 (Homo sapiens) (UniProt P51955); experiment: Inhibition of NEK2 (unknown origin) at 0.164 uM relative to control
[20] = biological target: Cyclin-dependent kinase 2 (Homo sapiens) (UniProt P24941); experiment: Inhibition of CDK2 (unknown origin) at 0.164 uM relative to control
[21] = biological target: Calcium/calmodulin-dependent protein kinase type 1 (Homo sapiens) (UniProt Q14012); experiment: Inhibition of CaMK1a (unknown origin) at 0.164 uM relative to control
[22] = biological target: Serine/threonine-protein kinase PAK 3 (Homo sapiens) (UniProt O75914); experiment: Inhibition of PAK3 (unknown origin) at 0.164 uM relative to control
[23] = biological target: Rho-associated protein kinase 2 (Homo sapiens) (UniProt O75116); experiment: Inhibition of ROCK2 (unknown origin) at 0.164 uM relative to control
[24] = biological target: Cyclin-dependent kinase 9 (Homo sapiens) (UniProt P50750); experiment: Inhibition of CDK9 (unknown origin) at 0.164 uM relative to control
[25] = biological target: Activated CDC42 kinase 1 (Homo sapiens) (UniProt Q07912); experiment: Inhibition of ACK (unknown origin) at 0.164 uM relative to control
[26] = test system: Tyrosine-protein kinase ABL1 (Homo sapiens), P00519 [Y253F]; experiment: Inhibition of ABL1 Y253F mutant (unknown origin) at 0.164 uM relative to control
[27] = biological target: Mitogen-activated protein kinase 1 (Homo sapiens) (UniProt P28482); experiment: Inhibition of Erk2 (unknown origin) at 0.164 uM relative to control
[28] = test system: Mitogen-activated protein kinase 14 (Homo sapiens), Q16539 [T106M]; experiment: Inhibition of SAPK2a T106M mutant (unknown origin) at 0.164 uM relative to control
[29] = biological target: MAP kinase-interacting serine/threonine-protein kinase 2 (Homo sapiens) (UniProt Q9HBH9); experiment: Inhibition of MNK2 (unknown origin) at 0.45 uM relative to control
[30] = biological target: T1, Serine/threonine-protein kinase DCLK1 (Homo sapiens) (UniProt O15075); experiment: Inhibition of DCAMKL1 (unknown origin) at 0.45 uM relative to control
T1 sequence (whole entry): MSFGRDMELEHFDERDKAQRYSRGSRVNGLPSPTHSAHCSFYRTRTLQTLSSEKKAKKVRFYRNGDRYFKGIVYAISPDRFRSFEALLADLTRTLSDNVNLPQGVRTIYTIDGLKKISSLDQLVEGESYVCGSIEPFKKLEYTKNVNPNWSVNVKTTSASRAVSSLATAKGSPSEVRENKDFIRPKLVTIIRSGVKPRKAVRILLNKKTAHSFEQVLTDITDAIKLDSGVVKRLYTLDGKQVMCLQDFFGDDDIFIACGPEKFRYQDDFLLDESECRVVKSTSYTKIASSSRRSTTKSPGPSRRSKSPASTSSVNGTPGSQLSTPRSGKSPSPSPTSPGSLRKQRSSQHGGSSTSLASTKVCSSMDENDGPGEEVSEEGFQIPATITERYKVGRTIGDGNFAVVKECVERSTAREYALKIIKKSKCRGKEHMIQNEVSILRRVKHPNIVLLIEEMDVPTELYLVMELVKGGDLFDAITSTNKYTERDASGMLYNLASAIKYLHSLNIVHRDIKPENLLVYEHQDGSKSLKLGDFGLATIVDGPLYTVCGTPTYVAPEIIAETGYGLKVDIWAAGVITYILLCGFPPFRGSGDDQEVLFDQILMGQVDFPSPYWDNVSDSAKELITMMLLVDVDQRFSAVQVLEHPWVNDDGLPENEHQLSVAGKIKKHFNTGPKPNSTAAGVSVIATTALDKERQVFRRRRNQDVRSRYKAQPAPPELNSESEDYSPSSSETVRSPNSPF

inhibition [1]: 4% | inhibition [2]: -1.7% | inhibition [3]: -0.7% | inhibition [4]: -2.3% | inhibition [5]: 13.7% | inhibition [6]: -0.7% | inhibition [7]: -4.3% | inhibition [8]: 6% | inhibition [9]: -9.3% | inhibition [10]: 1.3% | inhibition [11]: 3.7% | inhibition [12]: 68.3% | inhibition [13]: -5.7% | inhibition [14]: 5.3% | inhibition [15]: 14.7%
SMILES: Cc1[nH]nc(C2CC2)c1-c1ccc2c(-c3ccc(N4CCN(C)CC4)nc3)n[nH]c2c1

inhibition [16]: 7% | inhibition [17]: -2.7% | inhibition [18]: -1% | inhibition [19]: 1% | inhibition [20]: 9% | inhibition [21]: 3.3% | inhibition [22]: -2% | inhibition [23]: -3% | inhibition [24]: 0% | inhibition [25]: 0.7% | inhibition [26]: 6.7% | inhibition [27]: 9% | inhibition [28]: 0.7%
SMILES: COC(=O)Nc1cc(-c2c(C3CC3)n[nH]c2C)cc2[nH]ncc12

inhibition [29]: -1% | inhibition [30]: 0%
SMILES: Cc1n[nH]c(C)c1-c1ccc2c(NC(=O)c3ccc(N4CCN(C)CC4)cc3)n[nH]c2c1
